Data as given in patent publication US20250255847A1, “[…]s: Novel Drugs for Triple Negative Breast Cancer” (SIMMARON RSEARCH INC, priority 2024, published 2025).

Biological target: T1, full-length STAT5b protein (Homo sapiens, UniProt P51692)
T1 construct: full-length STAT5b protein melting was assessed with (J) SIM-1, (K) SIM-2, and (L) stattic
T1 sequence (P51692 1-787): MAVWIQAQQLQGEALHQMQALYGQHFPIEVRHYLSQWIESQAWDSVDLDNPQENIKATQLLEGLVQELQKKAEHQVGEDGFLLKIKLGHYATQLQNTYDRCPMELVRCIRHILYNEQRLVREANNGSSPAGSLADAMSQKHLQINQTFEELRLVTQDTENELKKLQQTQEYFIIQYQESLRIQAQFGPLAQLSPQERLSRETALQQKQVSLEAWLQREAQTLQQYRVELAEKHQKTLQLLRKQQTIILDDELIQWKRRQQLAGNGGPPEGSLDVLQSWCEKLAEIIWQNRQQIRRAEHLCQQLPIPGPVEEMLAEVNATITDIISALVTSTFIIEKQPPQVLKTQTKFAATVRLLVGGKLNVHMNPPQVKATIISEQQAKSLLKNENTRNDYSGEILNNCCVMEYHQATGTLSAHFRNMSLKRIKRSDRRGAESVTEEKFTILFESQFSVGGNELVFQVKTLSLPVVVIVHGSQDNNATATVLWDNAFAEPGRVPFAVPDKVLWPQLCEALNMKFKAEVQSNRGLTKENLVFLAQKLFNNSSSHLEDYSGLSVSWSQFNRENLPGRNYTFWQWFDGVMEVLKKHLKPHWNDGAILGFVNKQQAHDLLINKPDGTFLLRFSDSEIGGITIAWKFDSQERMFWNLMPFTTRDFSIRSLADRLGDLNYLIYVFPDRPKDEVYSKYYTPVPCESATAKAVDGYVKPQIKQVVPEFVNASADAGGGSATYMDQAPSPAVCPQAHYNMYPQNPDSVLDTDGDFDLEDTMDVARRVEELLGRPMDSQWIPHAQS
Experiment: Protein thermal shift binding assay with STAT5b
Details: increasing doses
Protocol: FIG. 5 illustrates an embodiment of the present invention and illustrates evaluations of SIM-1 and SIM-2 as STAT3 inhibitors. (A) Protein thermal shift assay was performed to assess the melting of purified recombinant STAT3 (blue; 0.5 μg protein) (Tm=melting temperature=68.88° C.). The representative melting curves were derived after adding SIM-1 (red; 4 nM), SIM-2 (purple; 8 nM), and positive control stattic (grey; 20 nM) to the STAT3 protein. The differences of melting temperature (ΔTm) between pure protein and protein+ligands are −4.54° C., −4.16° C., and 0.39° C. for SIM-1, SIM-2, and stattic (ΔTm^cut-off>2° C.). (B) Phospho protein array analysis was conducted in cell lysates of MDA-MB-468 cells treated with DMSO control (top left), 25 ng/mL EGF (top right), EGF+10 nM SIM-1 (bottom left), and EGF+SIM-2 (bottom right) for 24 hrs. Each colored arrowhead represents a specific phosphoprotein, and the description was added in the bottom of array images. S=serine and Y=tyrosine. Relative levels of (C) Tyrosine 705 (Y705) phosphorylated STAT3, (D) Serine 727 (S727) phosphorylated STAT3, (E) Tyrosine 693 (Y693) phosphorylated STAT4, (F) Tyrosine 694 ([…]) phosphorylated STAT5A had been derived after normalizing the spot densities (n=5) with respective β-actin spots. Results are mean±SD of five different spot analyses. One-way ANOVA was adopted to test the significance of mean between groups at **p<0.01, and ****p<0.0001. Ns=no significance. Thermal shift assays of increasing doses of (G) SIM-1, (H) SIM-2, and (I) stattic with purified STAT1 protein (0.5 μg protein). The respective ΔTm values were given with the plot after matching with the color code. Similarly, full-length STAT5b protein melting was assessed with (J) SIM-1, (K) SIM-2, and (L) stattic. Results are confirmed after three different experiments.
To confirm the result, PTS assay of STAT1 with SIM-1 (FIG. 5G), SIM-2 (FIG. 5H), and stattic (FIG. 5I) was performed. […] Similar results were observed while performing the binding assay with STAT5b.

CCOC(=O)c1c(NC(C)=O)sc2c(Cl)c(/C=N/O)ccc12 [SIM-2, ethyl 2-acetamido-7-chloro-6-(hydroxyiminomethyl)-1-benzothiophene-3-carboxylate]
shift in the melting curve of STAT5b: unable to produce any significant shift

O=C(O)CCC(=O)NCc1csc2ccc(Cl)cc12 [SIM-1, 4-[(5-chloro-1-benzothiophen-3-yl)methylamino]-4-oxobutanoic acid]
shift in the melting curve of STAT5b: unable to produce any significant shift
